We go through one molecule from PMC9259545, “Impact of poly-arginine peptides R18D and R18 on alteplase and tenecteplase thrombolysis in vitro, and neuroprotective stability to proteolysis” (Journal of Thrombosis and Thrombolysis, 2022).

Non-standard residues stand in square brackets, D forms with d. Residues, ends and D or L forms follow the SMILES beside them.

One experiment deals with T1, TNK (Homo sapiens, UniProt P00750, H332A/K331A/N152Q/R333A/R334A/T138N).
T1 construct: purchased Boehringer Ingelheim 50 mg vial
The experiment can be described thus: Halo clot thrombolysis assay, TNK thrombolysis of whole blood clots. Particulars: TNK 5 nM, 27.5% human plasma. The class given is biochemical. Here is the method: (§1) We utilised a high throughput 96-well plate thrombolysis assay (“halo clot assay”) based on the procedure developed by Bonnard et al.. To reduce assay components the halo thrombus formation procedure was modified by replacing the original thrombotic mixture consisting of recombinant tissue factor and synthetic phospholipids reconstituted in 30 mM calcium, with thrombin, and reducing the pro-thrombotic volume (i.e., thrombin) from 5 to 3 µL and blood volume from 25 to 12 µL. Another modification to simplify clot formation consisted of adding the thrombin (3 µL; 500 nM in saline) to one side of the well and 12 µL of blood to the opposite side of well, before using a heat stretched Pasteur pipette with sealed end to mix the two liquids together using 4 to 5 circular motions around the edge of the well (halo clot). The original methodology involved adding the 5 μL of the clotting mixture to the edge of the well, and then using a micropipette to slowly release the 25 μL of blood to the edge of the well while at the same time maintaining a circular motion. Plates were incubated in a humidified 37 °C incubator for 1 h before use in the thrombolysis assay.
(§2) The thrombolysis assay involved adding 30 µL of Tris buffer (50 mM Tris–HCl, 100 mM NaCl, pH 7.4) with or without peptide followed by 55 µL Tris buffer containing tPA or TNK (5 nM final concentration) and 50% human plasma (final plasma concentration during thrombolysis 27.5%). The final concentration of peptide during thrombolysis ranged from 0.25 to 16 µM (note: an intravenous dose of R18D at 350 nmol/kg, which is likely to be neuroprotective achieves a Cmax of 0.7–0.9 µM in healthy male and female rats; unpublished observation). […] Following the addition of tPA or TNK into the wells, clot lysis was monitored over a 1-h period at 37 °C using a plate reader (Cytation5, BioTek, USA) by measuring absorbance at 510 nm every 1 min immediately after orbital shaking (205 rpm for 5 s). Controls consisted of wells with no thrombin (100% clot lysis; L100%) and wells with no tPA or TNK (0% clot lysis; L0%). At the 1-h time point, the percentage of thrombolysis (%T) in tPA or TNK treated samples (LTX) was calculated by transforming absorbance values based on the formula: % T = (LTX) − (L0%)/(L100%) − (L0%) × 100. In addition, during the 1-h period of clot lysis lag time and maximal activity (also known as maximum velocity or Vmax) of the thrombolysis reaction were calculated. The lag time is defined as the time interval between the first absorbance reading (time = 0) and the line of maximum slope of the thrombolysis reaction. The maximal activity is calculated from the maximum slope over the time course of the assay and reflects the capacity of an enzyme to catalyse a reaction (i.e., thrombolysis), with higher values representing higher catalytic activity (i.e., tPA/TNK induced plasmin thrombolysis).
(§3) For each thrombolysis assay, replicates for control wells (L0% and L100%) and tPA or TNK only treated wells consisted of n = 4–8. Replicates for tPA or TNK and peptide treated wells consisted of n = 4. For data analysis and graphical representations of the results, data from three independent thrombolytic assays were pooled. Studies consisted of R18D, R18 and NA-1 examined at the 0.5, 1, 2, 4, 8 or 16 µM concentrations performed concurrently on the same 96-well plate, in respective order. In addition, since R18D is known to be resistant to plasmin degradation and appeared to have the most impact on tPA or TNK thrombolysis, a separate set of three independent assays were performed for this peptide alone at concentrations of 0.25, 0.5, 1, 2, 4, 8 or 16 µM. Furthermore, the second dose study with R18D provided the opportunity to include a lower concentration (0.25 µM) of the peptide and to provide comparative data when only one peptide was examined in the thrombolysis assay per 96-well plate as opposed to examining the three peptides concurrently on the same plate. […]

In another experiment the target is T2, tPA (Homo sapiens, UniProt P00750).
T2 construct: purchased Boehringer Ingelheim, Germany 10 mg vial
Kind of experiment: Halo clot thrombolysis assay, tPA thrombolysis of whole blood clots. Particulars: tPA 5 nM, 27.5% human plasma. The class given is biochemical. Here is the method:
as §1, §2, §3

[1] abbreviates: concurrent study, 0.5-16 µM peptide.
Where [2] appears, read: peptide 16 µM, concurrent study, 37 °C.
Setting [3] is: separate dose study, R18D alone, 0.25-16 µM.

T1 sequence (P00750 36-562 T138N/N152Q/K331A/H332A/R333A/R334A): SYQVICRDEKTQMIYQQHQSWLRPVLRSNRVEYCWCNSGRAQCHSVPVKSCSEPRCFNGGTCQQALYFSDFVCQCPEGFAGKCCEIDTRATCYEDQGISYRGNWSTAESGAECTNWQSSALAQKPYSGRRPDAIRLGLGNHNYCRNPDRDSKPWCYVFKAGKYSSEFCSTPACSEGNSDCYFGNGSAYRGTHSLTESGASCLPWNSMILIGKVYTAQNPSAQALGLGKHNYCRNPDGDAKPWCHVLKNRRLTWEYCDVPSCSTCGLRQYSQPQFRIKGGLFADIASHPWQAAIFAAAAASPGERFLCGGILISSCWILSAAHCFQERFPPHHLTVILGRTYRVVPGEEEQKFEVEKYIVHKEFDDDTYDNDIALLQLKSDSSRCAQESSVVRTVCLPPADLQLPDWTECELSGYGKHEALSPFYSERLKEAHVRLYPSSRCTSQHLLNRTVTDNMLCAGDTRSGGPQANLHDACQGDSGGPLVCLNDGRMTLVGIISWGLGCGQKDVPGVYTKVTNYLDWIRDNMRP
T2 sequence (P00750 36-562): as the sequence (P00750 36-562 T138N/N152Q/K331A/H332A/R333A/R334A) above, with N103T, Q117N, A296K, A297H, A298R, A299R counted along it

As to `N=C(N)NCCC[C@@H](N)C(=O)N[C@H](CCCNC(=N)N)C(=O)N[C@H](CCCNC(=N)N)C(=O)N[C@H](CCCNC(=N)N)C(=O)N[C@H](CCCNC(=N)N)C(=O)N[C@H](CCCNC(=N)N)C(=O)N[C@H](CCCNC(=N)N)C(=O)N[C@H](CCCNC(=N)N)C(=O)N[C@H](CCCNC(=N)N)C(=O)N[C@H](CCCNC(=N)N)C(=O)N[C@H](CCCNC(=N)N)C(=O)N[C@H](CCCNC(=N)N)C(=O)N[C@H](CCCNC(=N)N)C(=O)N[C@H](CCCNC(=N)N)C(=O)N[C@H](CCCNC(=N)N)C(=O)N[C@H](CCCNC(=N)N)C(=O)N[C@H](CCCNC(=N)N)C(=O)N[C@H](CCCNC(=N)N)C(=O)O` [R18D] (H-[dR][dR][dR][dR][dR][dR][dR][dR][dR][dR][dR][dR][dR][dR][dR][dR][dR][dR]-OH), the “Effect on TNK thrombolysis maximal activity vs TNK control” value at TNK (setting [1]) is given as “did not significantly impact TNK thrombolysis maximal activity”; on TNK (setting [3]), “did not significantly impact TNK thrombolysis maximal activity at any concentration”. The “Increase in TNK lag time” value at TNK (peptide 4 µM, concurrent study, 37 °C) turned out to be 6.64 min; on TNK (peptide 8 µM, concurrent study, 37 °C), 9.9 min; on TNK (setting [2]), 8.76 min. In addition, the “Decrease in TNK thrombolysis” value on TNK (peptide 4 µM, concurrent study, 37 °C, 1 h, p = 0.022) is given as 9.35%; on TNK (peptide 8 µM, concurrent study, 37 °C, 1 h, p = 0.044), 8.71%. At TNK (setting [3]), the “Effect on TNK lag time vs TNK control” value is recorded as “did not impact TNK lag time at any concentration”. The “Effect on percentage TNK thrombolysis at 1 h vs TNK control” value on TNK (separate dose study, R18D alone, 0.25-16 µM, 37 °C, 1 h) is on record as “did not inhibit TNK thrombolysis”. The “Effect on tPA thrombolysis maximal activity vs tPA control” value on tPA (setting [1]) is “did not significantly impact tPA thrombolysis maximal activity”; on tPA (setting [3]), “did not significantly impact tPA thrombolysis maximal activity at any concentration”. Moreover, on tPA (setting [2]), the “Increase in tPA lag time” value is 5.85 min. At tPA (setting [3]), the “Effect on tPA lag time vs tPA control” value is reported as “did not significantly affect tPA lag time at any concentration”. Further, the “Effect on percentage tPA thrombolysis at 1 h vs tPA control” value at tPA (separate dose study, R18D alone, 0.25-16 µM, 37 °C, three independent assays) is recorded as “did not inhibit tPA thrombolysis”; on tPA (three peptides concurrently on the same plate, 0.5-16 µM peptide, Tris pH 7.4, 37 °C, absorbance 510 nm, three independent assays pooled, n = 4, Dunnett's test), “did not significantly inhibit thrombolysis”.
